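Growth conditions: 96-well plates. Treatment: test compound, 48 hours, 5 concentrations. Analysis: linear interpolation between bracketing concentrations; unreached endpoints set to highest concentration. Abbreviation: GI50, concentration required for 50% inhibition of growth. TGI: concentration producing complete growth inhibition.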
Experiments:
Test in all cases: growth of human tumour cells (NCI), 48 h
ACHN renal = tested on: ACHN renal
PC-3 prostate = tested on: PC-3 prostate
UACC-62 melanoma = tested on: UACC-62 melanoma
UO-31 renal = tested on: UO-31 renal
LOX IMVI melanoma = tested on: LOX IMVI melanoma
SNB-19 CNS = tested on: SNB-19 CNS
UACC-257 melanoma = tested on: UACC-257 melanoma
RXF 393 renal = tested on: RXF 393 renal
MCF7 breast = tested on: MCF7 breast
MDA-MB-435 = tested on: MDA-MB-435

CNc1nc(NC2CCCC2)nc(Sc2ccc(OC)cc2)n1
GI50 (ACHN renal): > 10 µM
TGI (ACHN renal): > 10 µM
GI50 (PC-3 prostate): > 10 µM
TGI (PC-3 prostate): > 10 µM
GI50 (UACC-62 melanoma): > 10 µM
TGI (UACC-62 melanoma): > 10 µM
GI50 (UO-31 renal): > 10 µM
TGI (UO-31 renal): > 10 µM
GI50 (LOX IMVI melanoma): > 10 µM
TGI (LOX IMVI melanoma): > 10 µM
GI50 (SNB-19 CNS): > 10 µM
TGI (SNB-19 CNS): > 10 µM
GI50 (UACC-257 melanoma): > 10 µM
TGI (UACC-257 melanoma): > 10 µM
GI50 (RXF 393 renal): > 10 µM
TGI (RXF 393 renal): > 10 µM
GI50 (MCF7 breast): > 10 µM
TGI (MCF7 breast): > 10 µM
GI50 (MDA-MB-435): > 10 µM
TGI (MDA-MB-435): > 10 µM

Cc1c(C(=O)NN)nnn1-c1ccnc2c(C(F)(F)F)cccc12
GI50 (ACHN renal): > 100 µM
TGI (ACHN renal): > 100 µM
GI50 (PC-3 prostate): > 100 µM
TGI (PC-3 prostate): > 100 µM
GI50 (UACC-62 melanoma): > 100 µM
TGI (UACC-62 melanoma): > 100 µM
GI50 (UO-31 renal): > 100 µM
TGI (UO-31 renal): > 100 µM
GI50 (LOX IMVI melanoma): > 100 µM
TGI (LOX IMVI melanoma): > 100 µM
GI50 (SNB-19 CNS): > 100 µM
TGI (SNB-19 CNS): > 100 µM
GI50 (UACC-257 melanoma): > 100 µM
TGI (UACC-257 melanoma): > 100 µM
GI50 (RXF 393 renal): > 100 µM
TGI (RXF 393 renal): > 100 µM
GI50 (MCF7 breast): > 100 µM
TGI (MCF7 breast): > 100 µM
GI50 (MDA-MB-435): > 100 µM
TGI (MDA-MB-435): > 100 µM

N#Cc1c(-c2ccccc2)nc2c(c(-c3ccccc3)nn2-c2ccccc2)c1-c1ccc(O)cc1
GI50 (ACHN renal): 2.24 µM
TGI (ACHN renal): 5.89 µM
GI50 (PC-3 prostate): 1.82 µM
TGI (PC-3 prostate): 3.78 µM
GI50 (UACC-62 melanoma): 1.7 µM
TGI (UACC-62 melanoma): 3.18 µM
GI50 (UO-31 renal): 2.02 µM
TGI (UO-31 renal): 4.16 µM
GI50 (LOX IMVI melanoma): 1.68 µM
TGI (LOX IMVI melanoma): 3.05 µM
GI50 (SNB-19 CNS): 1.9 µM
TGI (SNB-19 CNS): 3.8 µM
GI50 (UACC-257 melanoma): 3.13 µM
TGI (UACC-257 melanoma): 12.1 µM
GI50 (RXF 393 renal): 1.03 µM
TGI (RXF 393 renal): 2.35 µM
GI50 (MCF7 breast): 1.86 µM
TGI (MCF7 breast): 4.76 µM
GI50 (MDA-MB-435): 1.86 µM
TGI (MDA-MB-435): 3.71 µM

O=C1c2ccccc2-c2c1c1ccccc1c(=O)n2CCNCCCNCCn1c2c(c3ccccc3c1=O)C(=O)c1ccccc1-2
GI50 (ACHN renal): 0.00672 µM
TGI (ACHN renal): 0.699 µM
GI50 (PC-3 prostate): 0.293 µM
TGI (PC-3 prostate): 1.24 µM
GI50 (UACC-62 melanoma): 0.362 µM
TGI (UACC-62 melanoma): 1.16 µM
GI50 (UO-31 renal): 0.221 µM
TGI (UO-31 renal): 1 µM
GI50 (LOX IMVI melanoma): 0.0461 µM
TGI (LOX IMVI melanoma): 0.331 µM
GI50 (SNB-19 CNS): 0.389 µM
TGI (SNB-19 CNS): > 50 µM
GI50 (UACC-257 melanoma): 1.17 µM
TGI (UACC-257 melanoma): 2.91 µM
GI50 (RXF 393 renal): < 0.005 µM
TGI (RXF 393 renal): 0.577 µM
GI50 (MCF7 breast): 0.0885 µM
GI50 (MDA-MB-435): 0.115 µM
TGI (MDA-MB-435): 1.1 µM

COc1ccc2c(c1)[C@@]13CCN4CC5=CCO[C@H]6CC(=O)N2[C@H]1[C@H]6[C@H]5C[C@H]43
TGI (ACHN renal): > 100 µM
TGI (PC-3 prostate): > 100 µM
TGI (UACC-62 melanoma): > 100 µM
TGI (UO-31 renal): > 100 µM
TGI (LOX IMVI melanoma): > 100 µM
TGI (SNB-19 CNS): > 100 µM
TGI (UACC-257 melanoma): > 100 µM
TGI (RXF 393 renal): > 100 µM
TGI (MCF7 breast): > 100 µM
TGI (MDA-MB-435): > 100 µM

Oc1c(Br)cc(CN(Cc2cc(Br)c(O)c(Br)c2)C2CCCCC2)cc1Br
TGI (ACHN renal): > 100 µM
TGI (PC-3 prostate): > 100 µM
TGI (UACC-62 melanoma): > 100 µM
TGI (UO-31 renal): > 100 µM
TGI (LOX IMVI melanoma): > 100 µM
TGI (SNB-19 CNS): > 100 µM
TGI (UACC-257 melanoma): > 100 µM
TGI (RXF 393 renal): > 100 µM
TGI (MCF7 breast): > 100 µM
TGI (MDA-MB-435): > 100 µM

CCN(CCO)CCNc1ccc(C)c2sc3cc(Cl)ccc3c(=O)c12
GI50 (ACHN renal): 1.61 µM
TGI (ACHN renal): 3.19 µM
GI50 (PC-3 prostate): 1.34 µM
TGI (PC-3 prostate): 2.94 µM
GI50 (UACC-62 melanoma): 1.73 µM
TGI (UACC-62 melanoma): 3.31 µM
GI50 (UO-31 renal): 1.1 µM
TGI (UO-31 renal): 2.4 µM
GI50 (LOX IMVI melanoma): 1.59 µM
TGI (LOX IMVI melanoma): 3.06 µM
GI50 (SNB-19 CNS): 1.58 µM
TGI (SNB-19 CNS): 3.17 µM
GI50 (UACC-257 melanoma): 1.97 µM
TGI (UACC-257 melanoma): 3.55 µM
GI50 (RXF 393 renal): 0.738 µM
TGI (RXF 393 renal): 2.2 µM
GI50 (MCF7 breast): 1.21 µM
TGI (MCF7 breast): 2.78 µM
GI50 (MDA-MB-435): 0.891 µM
TGI (MDA-MB-435): 2.26 µM

CCCCCCNc1nc(NCCCCCC)c2[nH]c(NCCCCCC)nc2n1
GI50 (ACHN renal): 15 µM
TGI (ACHN renal): 37.8 µM
GI50 (PC-3 prostate): 9.14 µM
TGI (PC-3 prostate): 28.9 µM
GI50 (UACC-62 melanoma): 13.4 µM
TGI (UACC-62 melanoma): 28.6 µM
GI50 (UO-31 renal): 14 µM
TGI (UO-31 renal): 35 µM
GI50 (LOX IMVI melanoma): 2.66 µM
TGI (LOX IMVI melanoma): 7.53 µM
GI50 (SNB-19 CNS): 15.5 µM
TGI (SNB-19 CNS): 29.5 µM
GI50 (UACC-257 melanoma): 17 µM
TGI (UACC-257 melanoma): 32.9 µM
GI50 (RXF 393 renal): 4.23 µM
TGI (RXF 393 renal): 17.5 µM
GI50 (MCF7 breast): 3.22 µM
TGI (MCF7 breast): 15.8 µM
GI50 (MDA-MB-435): 8.75 µM
TGI (MDA-MB-435): 24.9 µM

COC(=O)c1c(O)ccc2[nH]c(C)c(C#N)c12
GI50 (ACHN renal): 20.6 µM
TGI (ACHN renal): > 100 µM
GI50 (PC-3 prostate): 38.7 µM
TGI (PC-3 prostate): > 100 µM
GI50 (UACC-62 melanoma): 25.7 µM
TGI (UACC-62 melanoma): 90.4 µM
GI50 (UO-31 renal): 33.9 µM
TGI (UO-31 renal): > 100 µM
GI50 (LOX IMVI melanoma): 30.9 µM
TGI (LOX IMVI melanoma): > 100 µM
GI50 (SNB-19 CNS): 77.7 µM
TGI (SNB-19 CNS): > 100 µM
GI50 (UACC-257 melanoma): > 100 µM
TGI (UACC-257 melanoma): > 100 µM
GI50 (RXF 393 renal): 22 µM
TGI (RXF 393 renal): > 100 µM
GI50 (MCF7 breast): 46.3 µM
TGI (MCF7 breast): > 100 µM
GI50 (MDA-MB-435): 32.9 µM
TGI (MDA-MB-435): > 100 µM

C=C1C(=O)O[C@H]2[C@H]1CC/C(COC(=O)c1cc3cc(OC)ccc3[nH]1)=C\CC[C@@]1(C)O[C@@H]21
GI50 (ACHN renal): 0.817 µM
TGI (ACHN renal): 2.12 µM
GI50 (PC-3 prostate): 1.83 µM
TGI (PC-3 prostate): 3.65 µM
GI50 (UACC-62 melanoma): 1.38 µM
TGI (UACC-62 melanoma): 2.72 µM
GI50 (UO-31 renal): 1.12 µM
TGI (UO-31 renal): 2.37 µM
GI50 (LOX IMVI melanoma): 0.3 µM
TGI (LOX IMVI melanoma): 1.34 µM
GI50 (SNB-19 CNS): 1.57 µM
TGI (SNB-19 CNS): 3.2 µM
GI50 (UACC-257 melanoma): 1.61 µM
TGI (UACC-257 melanoma): 3 µM
GI50 (RXF 393 renal): 1.14 µM
TGI (RXF 393 renal): 2.39 µM
GI50 (MCF7 breast): 0.341 µM
TGI (MCF7 breast): 1.74 µM
GI50 (MDA-MB-435): 0.621 µM
TGI (MDA-MB-435): 2.03 µM

COc1ccc(C2C(C#N)=C(N)OC3=C2CCCc2ccc(F)cc23)cc1OC (centres undefined)
GI50 (ACHN renal): 19.9 µM
TGI (ACHN renal): 41.7 µM
GI50 (PC-3 prostate): 19.5 µM
TGI (PC-3 prostate): 38.8 µM
GI50 (UACC-62 melanoma): 21.6 µM
TGI (UACC-62 melanoma): 47 µM
GI50 (UO-31 renal): 16.5 µM
TGI (UO-31 renal): 31.8 µM
GI50 (LOX IMVI melanoma): 21.9 µM
TGI (LOX IMVI melanoma): 44.8 µM
GI50 (SNB-19 CNS): 30.2 µM
TGI (SNB-19 CNS): > 82.4 µM
GI50 (UACC-257 melanoma): 29.6 µM
TGI (UACC-257 melanoma): > 67.8 µM
GI50 (RXF 393 renal): 18.7 µM
TGI (RXF 393 renal): 45.7 µM
GI50 (MCF7 breast): 28.1 µM
TGI (MCF7 breast): > 77.7 µM
GI50 (MDA-MB-435): 12.9 µM
TGI (MDA-MB-435): > 53.3 µM

COc1cc2c3c(n(CCCN4CCC(N)CC4)c(=O)c2cc1OC)-c1cc2c(cc1C3=O)OCO2
GI50 (ACHN renal): 0.336 µM
TGI (ACHN renal): 1.24 µM
GI50 (PC-3 prostate): 0.302 µM
TGI (PC-3 prostate): 2.11 µM
GI50 (UACC-62 melanoma): 1.33 µM
TGI (UACC-62 melanoma): 6.34 µM
GI50 (UO-31 renal): 2.32 µM
TGI (UO-31 renal): 16.5 µM
GI50 (LOX IMVI melanoma): 0.298 µM
TGI (LOX IMVI melanoma): 1.02 µM
GI50 (SNB-19 CNS): 1.46 µM
TGI (SNB-19 CNS): 8.7 µM
GI50 (UACC-257 melanoma): 7.9 µM
TGI (UACC-257 melanoma): 17.9 µM
GI50 (RXF 393 renal): 0.94 µM
TGI (RXF 393 renal): 3.31 µM
GI50 (MCF7 breast): 0.283 µM
TGI (MCF7 breast): 1.01 µM
GI50 (MDA-MB-435): 1.77 µM
TGI (MDA-MB-435): 8.47 µM

Cn1c(N)nc2c(nc(OCc3ccccc3)n2C2OC(CO)C(O)C2O)c1=O (centres undefined)
TGI (ACHN renal): > 100 µM
TGI (PC-3 prostate): > 100 µM
TGI (UACC-62 melanoma): > 100 µM
TGI (UO-31 renal): > 100 µM
TGI (LOX IMVI melanoma): > 100 µM
TGI (SNB-19 CNS): > 100 µM
TGI (UACC-257 melanoma): > 100 µM
TGI (RXF 393 renal): > 100 µM
TGI (MCF7 breast): > 100 µM
TGI (MDA-MB-435): > 100 µM
